The target of assay [1] is T1, Microphthalmia-associated transcription factor (Homo sapiens, UniProt O75030).
T1 sequence (O75030 whole entry): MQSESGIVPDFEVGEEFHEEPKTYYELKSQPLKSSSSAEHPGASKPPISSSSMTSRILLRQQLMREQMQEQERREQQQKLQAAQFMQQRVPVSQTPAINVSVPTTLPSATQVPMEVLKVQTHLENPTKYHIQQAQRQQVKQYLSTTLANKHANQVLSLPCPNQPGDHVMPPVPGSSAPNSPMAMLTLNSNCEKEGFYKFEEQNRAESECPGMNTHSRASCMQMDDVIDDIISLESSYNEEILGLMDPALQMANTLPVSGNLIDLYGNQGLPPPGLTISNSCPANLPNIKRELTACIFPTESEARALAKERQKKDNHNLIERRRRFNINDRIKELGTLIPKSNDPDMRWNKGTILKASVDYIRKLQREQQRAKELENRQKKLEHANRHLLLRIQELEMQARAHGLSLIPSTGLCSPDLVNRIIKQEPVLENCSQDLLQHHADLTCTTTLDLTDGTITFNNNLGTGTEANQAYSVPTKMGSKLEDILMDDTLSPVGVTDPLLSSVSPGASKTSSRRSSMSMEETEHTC
Briefly: reducers of TRPM1 reporter luminescence, concentration series – cell-based, SK-MEL-5, cherry-picked, set 3, MITF inhibitor project, dose response (AID 493073).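 Further: SK-MEL-5 melanoma cells with luciferase driven by the MITF target TRPM1 promoter.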 The assay is classed as functional.

Assay [2] concerns the target T2, Serine/threonine-protein phosphatase (Candida dubliniensis (strain CD36 / CBS 7987 / NCPF 3949 / NRRLY-17841) (Yeast), UniProt B9W6M3).
T2 sequence (B9W6M3 whole entry): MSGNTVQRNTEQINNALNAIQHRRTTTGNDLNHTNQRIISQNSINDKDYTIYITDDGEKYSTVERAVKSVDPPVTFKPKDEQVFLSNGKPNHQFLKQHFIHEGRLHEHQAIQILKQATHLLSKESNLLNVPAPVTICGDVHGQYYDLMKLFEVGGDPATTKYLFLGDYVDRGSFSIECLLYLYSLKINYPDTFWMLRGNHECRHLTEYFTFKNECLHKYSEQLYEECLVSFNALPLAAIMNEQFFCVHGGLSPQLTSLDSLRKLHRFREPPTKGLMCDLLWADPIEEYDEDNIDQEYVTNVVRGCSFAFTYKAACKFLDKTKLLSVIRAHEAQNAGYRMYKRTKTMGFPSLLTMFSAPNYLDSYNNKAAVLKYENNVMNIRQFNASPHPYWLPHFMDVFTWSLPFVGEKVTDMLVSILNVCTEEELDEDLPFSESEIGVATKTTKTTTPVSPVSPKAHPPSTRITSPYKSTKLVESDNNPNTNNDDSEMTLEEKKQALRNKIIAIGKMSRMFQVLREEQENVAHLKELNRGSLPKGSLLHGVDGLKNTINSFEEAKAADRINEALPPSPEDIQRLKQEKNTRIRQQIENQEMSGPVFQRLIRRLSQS
The assay is described as follows: blockers of CaCl2-induced CDRE-lacZ signaling – S. cerevisiae, luminescence, secondary, dose response (AID 2388).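 Further: yeast reporter cells carrying a calcineurin-responsive lacZ construct stimulated with calcium chloride; luminescent beta-galactosidase reporter signal in whole cells rather than isolated phosphatase activity; potency for inhibition where a drop in reporter signal means calcineurin blockade.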 The format is functional, cell-based.

Assay [3] has as its target Delta-type opioid receptor (Homo sapiens, UniProt P41143). Briefly: HTS Image-Based Screen for Antagonists of the DOR Receptor. [Related pubchem assays (depositor defined):AID1777, AID1785, AID1786, AID2133]. The format is functional.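 Further: U2OS cells expressing DOR stimulated with 100 nM SNC80 agonist.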
A short description of assay [4]: alpha-synuclein stem-loop luciferase translation blockers – H4 neuroglioma cells, luminescence, confirmation (AID 1988). The assay is classed as functional, cell-based.
Assay [5] in a line: luciferase reporter signal suppression in cells – H4 neuroglioma cells, luminescence, dose response (AID 1990). The assay is classed as functional, cell-based.
Assay [6] in a line: blockade of melanocortin 4 receptor signaling – cell-based, plate reader, cherry pick, counter-screen for LGR2 antagonist project, dose response (AID 743444).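 Further: transfected HEK 293 cells stimulated with alpha-MSH peptide; potency of inhibitors of the alpha-MSH evoked signal.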 The assay is classed as functional.

Activity calls are given as the source filed them. Where only a bound is given, the exact number is not on record here.

Here are results for two compounds from ChEMBL document CHEMBL1201862, “PubChem BioAssay data set” (2004).

Sequence of Delta-type opioid receptor (P41143 whole entry): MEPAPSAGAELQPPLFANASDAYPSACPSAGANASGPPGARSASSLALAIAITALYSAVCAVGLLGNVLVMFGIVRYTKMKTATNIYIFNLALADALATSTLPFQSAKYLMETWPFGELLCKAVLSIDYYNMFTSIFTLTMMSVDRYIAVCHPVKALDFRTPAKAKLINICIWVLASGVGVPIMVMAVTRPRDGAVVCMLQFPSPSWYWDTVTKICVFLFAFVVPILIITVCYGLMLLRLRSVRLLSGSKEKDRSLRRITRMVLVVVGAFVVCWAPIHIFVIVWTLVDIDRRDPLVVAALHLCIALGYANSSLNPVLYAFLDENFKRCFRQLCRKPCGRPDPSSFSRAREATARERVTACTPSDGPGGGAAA

As to `Cc1ccc(C)c(S(=O)(=O)N2CCN(Cc3ccc(O)c4ncccc34)CC2)c1`, the AC50 in assay [1] was 4.44 µM (active). Also, in assay [2], the EC50 was 36 µM (active).
Consider `COc1cc(NC(=O)Cn2ncc(Cl)c(Cl)c2=O)c(C)cc1[N+](=O)[O-]`, for which, in assay [3], the IC50 was > 32 µM (inactive). Besides, the EC50 was > 120 µM (not active) in assay [4] and 8.09 µM (active) in assay [5]. Moreover, the AC50 in assay [6] was 29 µM (active).
